Data as given in the supplement of paper PMC10307832.

Compound: COC1=CC=C(C=C1)CN2C=CC3=C2C=C(C=C3)C(=O)NO + Cc1nc(NC(=O)N2CCC[C@H]2C(N)=O)sc1-c1ccnc(C(C)(C)C(F)(F)F)c1 [Alpelisib] (partner 2 µM)
Test: relative viability (nuclei count vs DMSO), 5 days (fraction); higher = more cells survive
Details: first compound 0.08 µM
How it was run: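 Nuclei were stained with Hoechst during a one-step fixation (final 0.05% Triton X-100, 1% formaldehyde, 1 ug/ml Hoechst) carried out 5 days after dosing, then counted on 4× images. The cells, lung cancer lines in 1536-well plates, had been dosed by pin tool the day after seeding with one drug alone or a fixed anchor-drug dose plus five library-drug doses (not always all listed) in √10 steps. Relative viability is the nuclei count in treated wells divided by that in vehicle wells, and each value is the median of duplicate plates.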

In order of rising relative viability:
1. NCI-H1703  0.337
2. NCI-H460  0.36
3. LXF-289  0.394
4. NCI-H520  0.43
5. NCI-H2405  0.474
6. NCI-H596  0.532
7. NCI-H2023  0.58
8. IA-LM  0.609
9. H3255  0.629
10. EMC-BAC-2  0.633
11. A549  0.643
12. NCI-H1975  0.699
13. NCI-H1395  0.708
14. NCI-H2170  0.714
15. HCC-15  0.74
16. EKVX  0.749
17. NCI-H1563  0.798
18. EBC-1  0.817
19. NCI-H1437  0.827
20. LC-2-ad  0.857
21. Calu-6  0.859
22. EPLC-272H  0.875
23. PC-14  0.883
24. SK-LU-1  1.01
25. NCI-H1299  1.09
26. NCI-H2009  1.15

Same assay, conditions: first compound 0.253 µM

In order of rising relative viability:
1. NCI-H1703  0.324
2. HCC-78  0.359
3. HCC-366  0.435
4. NCI-H596  0.53
5. NCI-H460  0.535
6. LU99A  0.552
7. NCI-H2023  0.646
8. NCI-H1734  0.676
9. NCI-H1975  0.711
10. H3255  0.722
11. IA-LM  0.743
12. EMC-BAC-2  0.749
13. NCI-H2405  0.784
14. A549  0.812
15. EBC-1  0.842
16. EKVX  0.856
17. PC-14  0.856
18. LC-2-ad  0.861
19. Calu-6  0.881
20. COR-L 105  0.93
21. NCI-H358  0.941
22. NCI-H2170  0.941
23. NCI-H1563  0.947
24. EPLC-272H  0.976
25. HCC-15  0.989
26. LXF-289  1.03
27. SK-LU-1  1.04
28. NCI-H1437  1.04
29. NCI-H1299  1.05
30. NCI-H1395  1.1
31. LK-2  1.11
32. NCI-H520  1.16
33. NCI-H2009  1.17
34. ABC-1  1.37

Same assay, conditions: first compound 0.8 µM

In order of rising relative viability:
1. NCI-H1703  0.328
2. NCI-H596  0.384
3. HCC-366  0.384
4. HCC-78  0.395
5. NCI-H460  0.506
6. NCI-H2023  0.507
7. LU99A  0.624
8. NCI-H1975  0.644
9. H3255  0.679
10. NCI-H1734  0.717
11. IA-LM  0.732
12. A549  0.743
13. EMC-BAC-2  0.799
14. NCI-H2405  0.804
15. LC-2-ad  0.833
16. NCI-H2170  0.837
17. EBC-1  0.848
18. EKVX  0.878
19. NCI-H520  0.887
20. LK-2  0.896
21. Calu-6  0.897
22. HCC-15  0.898
23. ABC-1  0.928
24. NCI-H1563  0.946
25. NCI-H1437  0.958
26. PC-14  0.96
27. NCI-H358  0.985
28. EPLC-272H  0.985
29. COR-L 105  1.04
30. NCI-H2009  1.05
31. NCI-H1299  1.05
32. SK-LU-1  1.11
33. NCI-H1395  1.11
34. LXF-289  1.12

Same assay, conditions: first compound 2.53 µM

In order of falling relative viability:
1. NCI-H2009  1.24
2. LK-2  1.13
3. SK-LU-1  1.11
4. NCI-H1299  1.08
5. LXF-289  1.05
6. PC-14  1.02
7. Calu-6  1.02
8. ABC-1  1
9. NCI-H1395  0.979
10. LC-2-ad  0.973
11. NCI-H1563  0.964
12. NCI-H1437  0.953
13. COR-L 105  0.942
14. HCC-15  0.93
15. NCI-H358  0.919
16. EKVX  0.91
17. NCI-H520  0.904
18. EPLC-272H  0.864
19. IA-LM  0.852
20. EBC-1  0.815
21. NCI-H2405  0.797
22. NCI-H2170  0.793
23. EMC-BAC-2  0.77
24. A549  0.749
25. H3255  0.717
26. NCI-H1734  0.622
27. LU99A  0.605
28. NCI-H1975  0.592
29. HCC-366  0.587
30. NCI-H2023  0.586
31. NCI-H596  0.561
32. NCI-H460  0.359
33. HCC-78  0.35
34. NCI-H1703  0.344

Same assay, conditions: first compound 8 µM

In order of rising relative viability:
1. HCC-78  0.305
2. NCI-H460  0.338
3. NCI-H596  0.474
4. LU99A  0.479
5. NCI-H1975  0.547
6. H3255  0.621
7. NCI-H2023  0.639
8. NCI-H2405  0.675
9. NCI-H1734  0.689
10. EMC-BAC-2  0.71
11. EBC-1  0.737
12. IA-LM  0.776
13. SK-LU-1  0.81
14. NCI-H358  0.829
15. HCC-15  0.853
16. NCI-H520  0.853
17. EPLC-272H  0.875
18. EKVX  0.897
19. LK-2  0.907
20. COR-L 105  0.929
21. NCI-H1395  0.967
22. PC-14  0.985
23. NCI-H1437  1.01
24. LXF-289  1.01
25. NCI-H1299  1.04
26. NCI-H2009  1.09
27. ABC-1  1.17
